# In patent publication US12630589B2, “Compounds for use in viral infections” (priority 2020, dated 2026):
# Like-named read-outs stand apart in the source and are kept apart here.
# Assays:
# [1] = tested on: NF-κB; experiment: NF-κB transactivation luciferase assay in THP-1 cells; assay type: cell-based, human; details: THP-1 NF-κB-Luc cells, 100 nM plitidepsin, 6 hours, with poly I:C, LPS-B5 or Resiquimod
# Procedure: To that end, we took advantage of THP-1 cells stably transfected with an NFκB luciferase reporter plasmid. We treated the cells with 100 ng/mL TNFα (an activator of NF-κB), 500 μg/mL poly I:C (TLR3 ligand), 10 μg/mL LPS-B5 (TLR4 ligand) or 10 g/mL Resiquimod (TLR-7/8 ligand). The compounds were used either alone (FIG. 1A grey bars) or combined with 100 nM of plitidepsin (FIG. 1A black bars) for 6 hours, and quantified the luciferase activity under each condition.
# NF-κB transactivation was assayed using the Bright-Glo™ Luciferase Assay System following the manufacturer's instructions. The NF-κB reporter (Luc)-THP-1 human monocytic, cells stably transfected with NF-κB-Luc plasmid (containing four NF-κB binding sites, a minimal promoter and a luciferase gene), were exposed to 100 ng/mL TNFα (positive control), 500 μg/mL poly (I:C) (Polyinosinic-polycytidylic), 10 μg/mL LPS-B5 (Lipopolysaccharide from Escherichia coli 055:B5) or 10 g/mL Resiquimod. The compounds were used either alone or combined with 100 nM plitidepsin for 6 hours. Luminescence was measured in a Perkin-Elmer EnVision reader. A MTT (3-(4,5-dimethylthiazol-2-yl)-2,5-diphenyltetrazolium bromide) cell proliferation assay was simultaneously performed to control the cytotoxicity of the compounds. Cell survival was expressed as percentage of control cell growth. […]
# [2] = tested on: THP-1 human monocytic cells; experiment: MTT cell proliferation assay (compound-induced cytotoxicity); details: activators combined with 100 nM plitidepsin, 6 hours
# Procedure: To that end, we took advantage of THP-1 cells stably transfected with an NFκB luciferase reporter plasmid. We treated the cells with 100 ng/mL TNFα (an activator of NF-κB), 500 μg/mL poly I:C (TLR3 ligand), 10 μg/mL LPS-B5 (TLR4 ligand) or 10 g/mL Resiquimod (TLR-7/8 ligand). The compounds were used either alone (FIG. 1A grey bars) or combined with 100 nM of plitidepsin (FIG. 1A black bars) for 6 hours, and quantified the luciferase activity under each condition. […] Survival was analysed with the MTT assay (FIG. 1B grey bars (activators) and red bars (activators combined with 100 nM of plitidepsin)).
# NF-κB transactivation was assayed using the Bright-Glo™ Luciferase Assay System following the manufacturer's instructions. […] Luminescence was measured in a Perkin-Elmer EnVision reader. […] Cell survival was expressed as percentage of control cell growth. […]
# Cells were seeded in 96 well microtiter plates and allowed to stand for 24 hours at 37° C. and 5% CO2 before treatment described above. After 6 hours of continuous treatment, cellular viability was estimated from conversion of MTT to its coloured reaction product, MTT formazan, which was dissolved to measure its absorbance at 540 nm. […]
# [3] = tested on: THP-1 cells; experiment: Cell viability after plitidepsin pre-treatment and Resiquimod stimulus; assay type: cell-based, human; details: 1, 10 or 50 nM, Resiquimod 2.5 or 5 μg/mL, 24 hours
# Procedure: (§1) In a further in vitro experiment, the effect of plitidepsin (APL) pre-treatment on THP-1 cells was studied. Using a THP-1 NFκB luc line, 1, 10 or 50 nM of APL or DMSO (0.2%) was added 8 hours before stimulus with Resiquimod (RQ) at 2.5 or 5 μg/mL. RQ is a TLR7/8 agonist and mimics ssRNA. At 24 hours the level of cytokines or cell viability was measured.
# [4] = tested on: Huh7 cells; experiment: Cell biomass (DAPI) in Huh7 cells; assay type: cell-based, human; details: 48 hours
# Procedure: (§2) Relative infection efficiency was assessed by automated fluorescence microscopy in the green channel and overall cell biomass/well was estimated by nuclear staining with DAPI in the blue channel, as a preliminary assessment of the compound effective doses as well as overall compound cytotoxicity.
# (§3) Infection experiments: Cells were seeded onto 96-well plates (2×10^4 cells/well). The day after, serial 5-fold dilutions of plitidepsin were prepared in 2% FCS-containing complete media to achieve the indicated final concentrations. WNV-GFP stock was diluted in complete media containing 2% FCS to achieve the required multiplicity of infection (MOI 0.01). Compound and virus dilutions were mixed 1:1 and added onto the target cells. Cells were incubated for 48 hours at 37° C.; 5% CO2 and 95% humidity.
# (§4) Cells were fixed by addition of a 5× formaldehyde solution to achieve a 4% final concentration for 30 mins at room temperature. Cells were washed with PBS and stained with DAPI (4′,6-diamidino-2-phenylindole) following manufacturer's recommendations. Relative infection efficiency was estimated by image analysis in an automated microscopy device (Tecan Spark Cyto). Uninfected cells and vehicle-treated controls were included in each plate.
# [5] = tested on: WNV-NY99 (lineage 1); experiment: WNV/NY99 extracellular infectivity titers, Huh-7 cells; assay type: cell-based, West Nile virus; details: 45 nM, MOI 0.01, 48 hours
# [6] = tested on: WNV-NY99 (lineage 1); experiment: Intracellular WNV RNA load by RT-qPCR, Vero-E6 cells; assay type: cell-based, West Nile virus; details: 48 hours
# [7] = tested on: TNFα; experiment: Resiquimod-triggered TNFα secretion in BALF of mice; assay type: in vivo; details: mice 1 mg/kg i.v. 1 hour before 50 μg/mouse intranasal RQ; 1 or 3 hours
# [8] = tested on: WNV-GFP (lineage 2; molecular clone WN956)
# [9] = Plasma pharmacokinetics in mouse (Table 1); assay type: in vivo; details: Mouse (F) C57BL6/J, 1.0 mg/kg single intravenous bolus
# [10] = tested on: WNV-NY99 (lineage 1); experiment: WNV/NY99 extracellular infectivity titers, Vero-E6 cells; assay type: cell-based, West Nile virus; details: VeroE6 cells, 45 nM, MOI 0.01, 48 hours
# [11] = tested on: IL6, IL8, IL1β and TNF-α secretion; experiment: Plitidepsin pre-treatment of THP-1 cells before Resiquimod stimulus, cytokine secretion; assay type: cell-based, human; details: 1, 10 or 50 nM added 8 hours before Resiquimod 2.5 or 5 μg/mL; read at 24 hours
# Procedure: as §1
# [12] = tested on: VeroE6 cells; experiment: Cell biomass (DAPI) in VeroE6 cells; assay type: cell-based, African green monkey; details: 48 hours
# Procedure: as §2, §3, §4
# [13] = tested on: IL-6, IL-10 and TNFα secretion; experiment: Ex vivo LPS-B5-triggered cytokine secretion in bronchoalveolar lavage cells of treated mice; design: species or system mouse
# Procedure: We checked whether plitidepsin inhibits the LPS-trigged cytokine secretion in alveolar macrophages. To that end mice were injected i.v. with plitidepsin (1 mg/kg) or vehicle and 12 hours after administration bronchoalveolar lavage fluid (BAL) was collected. Cells were plated and treated ex-vivo or not with 15 μg/mL of LPS-B5 for 3 or 6 hours and secreted cytokines were measured.
# Mice were randomized into groups of five animals to receive the treatments. Mice were injected intra venous (i.v.) with plitidepsin (1 mg/kg) and 12 hours after administration were euthanised. Control group received plitidepsin vehicle diluted with saline (Cremophor/Ethanol/Water). Bronchoalveolar lavage fluid (BAL) of each group was collected and centrifugated to obtain bronchoalveolar lavage cells. Cells underwent red blood cell lysis (Roche) and were plated and treated ex-vivo or not with 15 μg/mL of LPS-B5 for 3 or 6 hours. Secreted cytokines were measured using highly specific and sensitive ELISA kits. Mouse IL-6, mouse IL-10 and mouse TNF DuoSet ELISA kits were obtained from R&D Systems and performed as described by the manufacturer.
# [14] = tested on: IL-1, IL-6, IL-8 and TNFα secretion; experiment: ELISA assays for secreted cytokines in THP-1 cells; assay type: cell-based, human; details: 100 nM plitidepsin, 6 hours, TLR ligands
# Procedure: To investigate whether plitidepsin inhibits the TLR-trigged cytokine secretion, we treated THP-1 cells with 100 ng/mL TNFα (an activator of NF-κB), 500 μg/mL poly I:C (TLR3 ligand), 10 g/mL LPS-B5 (TLR4 ligand) or 10 g/mL Resiquimod (TLR-7/8 ligand). The compounds were used either alone (grey bars) or combined with 100 nM of plitidepsin (red bars) for 6 hours. We compared the variations in cytokine secretion in the cell culture supernatants between the different treatments by ELISA assays.
# THP1-NFκB-LUC cell cultures were treated as described above, and the culture medium was sampled at 6 hours post-treatment to assay for secreted cytokines by ELISA. Media samples were stored at 4° C. IL-8, IL-1β, IL-6 and TNF□ protein secretion into culture medium was quantitated using highly specific and sensitive ELISA kits. Human IL-1b, human IL-6, human IL-8 and human TNF OptEIA™ ELISA kits were obtained from BD Biosciences and performed as described by the manufacturer. The data presented are the average of three independent experiments performed in triplicate.
# [15] = tested on: WNV-NY99 (lineage 1); experiment: Intracellular WNV RNA load by RT-qPCR, Huh-7 cells; assay type: cell-based, West Nile virus; details: 48 hours
# [16] = tested on: alveolar macrophages; experiment: Alveolar macrophage recruitment in mice (LPS inflammation model, flow cytometry); details: for macrophages in bronchoalveolar lavage: single iv administration
# Source text: Also we checked the effect of plitidepsin on alveolar macrophage recruitment. Viral infection also leads to the activation of macrophages. Activated macrophages are twice the size of resting macrophages and are more “aggressive”, having increased levels of lysosomal proteins and a greater ability to phagocytose. Classically activated macrophages also release proteases, neutrophil chemotactic factors, reactive oxygen species and pro-inflammatory cytokines (such as IL-1 beta/IL-1F2, IL-6, and TNF-alpha/TNFSF1A), leading to inflammation and tissue destruction. Bronchoalveolar lavage cells were stained and analyced by flow cytometry.
# To investigate whether plitidepsin decreases the percentage of alveolar macrophage in animals with acute inflammation, we treated mice with plitidepsin (1 mg/kg) i.v., with LPS (20 μg/kg) i.p. in sterile saline or with plitidepsin (1 mg/kg; i.v.) in combination with LPS (20 μg/kg, i.p.). Three hours later, bronchoalveolar lavages were collected. Bronchoalveolar lavage cells were obtained by centrifugation and analyzed by flow cytometry (FIG. 4b). Upper panels show the strategy of analysis of macrophage population present in the samples. Lower right panel show the same result expressed as percentage of cells. Lower left panel show the percentage of CD45+(leucocyte marker) alive cells.
# Bronchoalveolar lavage cells were obtained by centrifugation and analyzed by flow cytometry.
# Bronchoalveolar lavage cells were stained with anti-F4/80-BV510, CD45-APC700, CD11b-BV650, CD11c-APC-Fire, CD24-PC7 and Ly6C-BV605 monoclonal antibodies (Biolegend) and a LIVE/DEAD™ Fixable Green Dead Cell Stain Kit, for 488 nm excitation (Thermofisher). Macrophages (F4/80+) were gated on alive immune cells (CD45+ LIVE/DEAD dye−), while alveolar macrophages (F4/80+CD24−) were specifically gated on CD11c+CD11b− population from alive immune cells. Isotype controls and compensation beads were used to set compensations and gating strategies.
# [17] = tested on: WNV-GFP (lineage 2; molecular clone WN956); experiment: WNV-GFP infection efficiency in Huh7 cells; assay type: cell-based, West Nile virus
substance,measurement,setting,value
"(−)-(3S,6R,7S,10R,11S,15S,17S,20S,25aS)-11-hydroxy-3-(4-methoxybenzyl)-2,6,17-trimethyl-15-(1-methylethyl)-7-[[(2R)-4-methyl-2-[methyl[[(2S)-1-(2-oxopropanoyl)pyrrolidin-2-yl]carbonyl]amino]pentanoyl]amino]-10-[(1S)-1-methylpropyl]-20-(2-methylpropyl)tetradecahydro-15H-pyrrolo[2,1-f]-[1,15,4,7,10,20]dioxatetrazacyclotricosine-1,4,8,13,16,18,21(17H)-heptone [PLD]",NF-κB transactivation (production of luciferase),[1],clearly inhibited the production of luciferase
same,"cytotoxic effect (survival, MTT assay)",[2],No cytotoxic effect was detected
same,cell viability over the untreated control,[3],does not decrease viability over the untreated control
same,CC50,[4],14.7 nM
same,concentration at which loss of cell biomass is statistically significant (p<0.05),[4],7.2 nM
same,reduction of extracellular infectivity titers,[5],> 3 orders of magnitude
same,intracellular viral RNA load,[6]; 5 and 1.5 nM,not distinguishable from those in the control
same,intracellular viral RNA load,[6]; 15 and 45 nM,significantly decreased in a dose-dependent manner
same,production of TNFα induced by Resiquimod in BALF,[7],prevented the increased production of TNFα
same,concentration with antiviral activity in the absence of measurable interference with cell viability (p<0.05),[8]; Vero-E6 cells,7.2 nM
same,therapeutic index (ratio CC50/EC50),[8]; VeroE6 cells,475
same,concentration at which infection efficiency reaches background fluorescence levels,"[8]; VeroE6 cells, 48 hours",≥ 36 nM
same,EC50,"[8]; read-out: EC50, WNV-GFP infection efficiency, VeroE6 cells, MOI 0.01, 48 hours",4.9 nM
same,EC90,"[8]; read-out: EC90, WNV-GFP infection efficiency, VeroE6 cells, MOI 0.01, 48 hours",9.5 nM
same,Cl,[9],73.3 mL/min/kg
same,reduction of extracellular infectivity titers,[10],> 3 orders of magnitude
same,"secretion of IL6, IL8, IL1β and TNF-α induced by RQ",[11],"inhibited secretion of the pro-inflammatory cytokines: IL6, IL8, IL1β and TNF-α"
same,concentration at which cell number significantly decreased (p<0.05),[12],180 nM
same,concentration up to which cell number remained unchanged,[12],up to 36 nM
same,CC50,[12]; read-out: CC50 based on the cell biomass,2330 nM
same,production of IL-6 and TNF-α induced by LPS,"[13]; mice 1 mg/kg i.v., BAL at 12 hours, cells treated ex vivo with 15 μg/mL LPS-B5 for 3 or 6 hours","clearly inhibited the production of pro-inflammatory cytokines IL-6, and TNF-α"
same,"secretion of IL-6, IL-10 and TNFα induced by LPS-B5 in CD45+ cells from broncho-alveolar lavages","[13]; treated animals, 3 and 6 hours","significantly reduce the secretion of IL-6, IL-10 and TNFα"
same,"production of IL-1, IL-6, IL-8 and TNFα (ELISA)",[14],"clearly inhibited the production of IL-1, IL-6, IL-8 and TNFα"
same,intracellular viral RNA load,[15]; 15 nM,marked reduction in viral load
same,RNA recovery from cells,[15]; 45 nM,no RNA could be recovered
same,cytotoxic effects on bronchoalveolar lavage cells,[16]; 1 mg/kg i.v.,without cytotoxic effects
same,percentage of macrophages present on bronchoalveolar lavage,"[16]; plitidepsin 1 mg/kg i.v. with LPS 20 μg/kg i.p., 3 hours",decrease the percentage of macrophages
same,macrophages in bronchoalveolar lavage,[16],reduces the number of macrophages in BAL
same,macrophages in bronchoalveolar lavage,[16]; listed as Plitidepsin,decreased the percentage of macrophages
same,EC50,"[17]; Huh7 cells, MOI 0.01, 48 hours",0.665 nM
same,EC90,"[17]; Huh7 cells, MOI 0.01, 48 hours",3.86 nM
same,concentration with antiviral activity in the absence of measurable interference with cell viability (p<0.05),[17]; Huh-7 cells,1.5 nM
